Patent US6627771B1, “Gamma amino butyric and acid analogs” (Pfizer Inc, priority 1998, dated 2003)
Where two headings read alike, the source gives them in different places.

Experiments:
System L = System L Binding
[1] = test system: Carrageenin-Induced Hyperalgesia; experiment: Pain Model (Carrageenin-Induced Hyperalgesia, rat paw pressure test); format: in vivo
Procedure: Carrageenin-Induced Hyperalgesia
Nociceptive pressure thresholds were measured in the rat paw pressure test using an analgesymeter (Randall-Sellitto Method: Randall L. O., Sellitto J. J., A method for measurement of analgesic activity on inflamed tissue. Arch. Int. Pharmacodyn., 4:409-419 (1957)). Male Sprague-Dawley rats (70-90 g) were trained on this apparatus before the test day. Pressure was gradually applied to the hind paw of each rat and nociceptive thresholds were determined as the pressure (g) required to elicit paw withdrawal. A cutoff point of 250 g was used to prevent any tissue damage to the paw. On the test day, two to three baseline measurements were taken before animals were administered 100 μL of 2% carrageenin by intraplantar injection into the right hind paw.

[2] = test system: sound-induced seizure responses in DBA/2 mice; experiment: DBA2 Mouse Model of Anticonvulsant Efficacy; format: in vivo; conditions: for responders at 30 mg/kg: Mus musculus, po, read-out: DBA2 Mouse Model % Protected
Procedure: DBA2 Mouse Model of Anticonvulsant Efficacy
All procedures were carried out in compliance with the NIH Guide for the Care and Use of Laboratory Animals under a protocol approved by the Parke-Davis Animal Use Committee. Male DBA/2 mice, 3 to 4 weeks old were obtained from Jackson Laboratories Bar Harbour, Maine. Immediately before anticonvulsant testing, mice were placed upon a wire mesh, 4 inches square, suspended from a steel rod. The square was slowly inverted through 180° and mice observed for 30 seconds. Any mouse falling from the wire mesh was scored as ataxic (Coughenour L. L., McLean J. R., Parker R. B., “A new device for the rapid measurement of impaired motor finction in mice,” Pharm. Biochem. Behav., 1977;6(3):351-3). Mice were placed into an enclosed acrylic plastic chamber (21 cm height, approximately 30 cm diameter) with a high-frequency speaker (4 cm diameter) in the center of the top lid. An audio signal generator (Protek model B-810) was used to produce a continuous sinusoidal tone that was swept linearly in frequency between 8 kHz and 16 kHz once each 10 msec. The average sound pressure level (SPL) during stimulation was approximately 100 dB at the floor of the chamber. Mice were placed within the chamber and allowed to acclimatize for one minute. […] The incidence of all the seizure phases in the drug-treated and vehicle-treated mice was recorded, and the occurrence of tonic seizures were used for calculating anticonvulsant ED50 values by probit analysis (Litchfield J. T., Wilcoxon F. “A simplified method for evaluating dose-effect experiments,” J. Pharmacol., 1949;96:99-113). […] Groups of DBA/2 mice (n=5-10 per dose) were tested for sound-induced seizure responses 2 hours (previously determined time of peak effect) after given drug orally. […] Doses are expressed as weight of the active drug moiety.

[3] = test system: Vogel Conflict (punished drinking) in Wistar rats; experiment: Vogel Conflict; format: in vivo, rat; conditions: summary of Table 1
Procedure: Vogel J. R., Beer B. and Cloody D. E., 1971, reported the procedure used. Basically, in each experiment, 100 näive adult male Wistar rats between 170-220 gm were randomly divided into 10 groups and deprived of water for 48 hours prior to testing. Food was available on Day 1 and removed 24 hours prior to test Day 2.
On Day 1, experimental subjects were placed into the test chambers and allowed to drink 5 mL of water unpunished from a drinking tube on a water bottle mounted on the outside of the chamber. Immediately following the unpunished drinking session, each rat was dosed (PO) with vehicle (1 mL/kg) and returned to their home cage. On test Day 2, rats are dosed with the appropriate treatment and placed in test cages, following a 2-hour absorption period each rat is placed into a test chamber and allowed to drink for 10 minutes. Adjacent to the drink-tube is an optical lickmeter with a photo beam detector that counts the number of licks during active drinking. Every 10 licks, the rats received 1-second shock (1 mA) through the drink tube. Thus, a conflict or anxiety-producing situation exists; rats are motivated to drink, however, they are inhibited by the shock. Anxiety is reflected by the low amounts of drinking. Standard anxiolytic drugs produce effects that allow rats to overcome this behavioral inhibition and drink despite the shock.

NCC(CC(=O)O)CC1CCCC1 (centres unmarked) [Example 8] gave an IC50 (System L) of 4640 µM.

For NC[C@@H](CC(=O)O)C1CCCC1 [5S−, (S)-4-Amino-3-cyclopentyl-butyric Acid], the “Pain Model % MPE 1 Hour” value [1] was 35 % MPE, the “Pain Model % MPE 2 Hour” value [1] was 24 % MPE and the IC50 (System L) was 476 µM.

For NCC(CC(=O)O)CC1CCC1 (centres unmarked) [Example 7], the “Pain Model % MPE 1 Hour” value [1] was 1.5 % MPE, the “Pain Model % MPE 2 Hour” value [1] was −3.4 % MPE and the IC50 (System L) was 2600 µM.

With NCC(CC(=O)O)C1CCC1 (centres unmarked) [Example 2, 4-Amino-3-cyclobutyl-butyric Acid] the “Pain Model % MPE 1 Hour” value [1] was −1.7 % MPE, the “Pain Model % MPE 2 Hour” value [1] was −12.1 % MPE and the responders at 30 mg/kg ([2]; 1 Hr @ 30 m/k) was 0%. The responders at 30 mg/kg ([2]; 2 Hr @ 30 m/k) was 40% and the IC50 (System L) was 1500 µM.

With NCC(CC(=O)O)CC1CC1 (centres unmarked) [Example 6] the “Pain Model % MPE 1 Hour” value [1] was 2.3 % MPE, the “Pain Model % MPE 2 Hour” value [1] was −3.4 % MPE and the IC50 (System L) was 1870 µM.

For CC(CN)(CC(=O)O)C1CCC1 (centres unmarked) [Example 11], the “Pain Model % MPE 1 Hour” value [1] was 4.2 % MPE, the “Pain Model % MPE 2 Hour” value [1] was 3.1 % MPE and the IC50 (System L) was 74 µM.

CC(CN)(CC(=O)O)CC1CCCC1 (centres unmarked) [Example 13] was tested, and the IC50 (System L) was 1040 µM.

For NCC(CC(=O)O)CC1CCCCC1 (centres unmarked) [Example 9], the IC50 (System L) was 5500 µM.

For CC(CN)(CC(=O)O)CC1CCC1 (centres unmarked) [Example 12], the “Pain Model % MPE 1 Hour” value [1] was −4.2 % MPE, the “Pain Model % MPE 2 Hour” value [1] was −5.2 % MPE and the IC50 (System L) was 105 µM.

With NC[C@H](CC(=O)O)C1CCCC1 [4R+, 4(R)-Amino-3-cyclopentyl-butyric Acid] the “antianxiety activity” value [3] was “especially active”, the “Pain Model % MPE 1 Hour” value [1] was 36 % MPE and the “Pain Model % MPE 2 Hour” value [1] was 13.7 % MPE. The “antihyperalgesic activity” value ([1]; summary of Table 1) was “especially active”, the “preventing convulsions” value ([2]; summary of Table 1) was “especially active” and the IC50 (System L) was 198 µM.

CC(CN)(CC(=O)O)C1CC1 (centres unmarked) [Example 10] was tested, and the “Pain Model % MPE 1 Hour” value [1] was −4.3 % MPE, the “Pain Model % MPE 2 Hour” value [1] was −9.1 % MPE and the IC50 (System L) was 599 µM.

With NCC(CC(=O)O)C1CCCC1 (centres unmarked) [Example 3, 4-Amino-3-cyclopentyl-butyric Acid] the “Pain Model % MPE 1 Hour” value [1] was 73.8 % MPE, the “Pain Model % MPE 2 Hour” value [1] was 27.7 % MPE and the IC50 (System L) was 464 µM.
